Results taken from patent US20050136444A1 (priority 2003, published 2005).
Several values for one entry are separate records, joined by “and”; a condition that tells them apart may be missing. Identical values can stand only once. Entries after “also recorded” stand apart in the source; their conditions may differ. Counter-ions that a name gives are not always drawn. Like-named read-outs stand apart in the source and are kept apart here.

Legend:
NPFF2 = target: T1, NPFF2 (Homo sapiens, UniProt Q9Y5X5); test: Receptor Selection and Amplification Technology (R-SAT) functional assay, NPFF2; type: cell-based; settings: for NPFF2b % Efficacy Mean: Hydrochloride
T1 construct: expressed in transfected cells; host or cells: NIH3T3
T1 sequence (Q9Y5X5 103-522): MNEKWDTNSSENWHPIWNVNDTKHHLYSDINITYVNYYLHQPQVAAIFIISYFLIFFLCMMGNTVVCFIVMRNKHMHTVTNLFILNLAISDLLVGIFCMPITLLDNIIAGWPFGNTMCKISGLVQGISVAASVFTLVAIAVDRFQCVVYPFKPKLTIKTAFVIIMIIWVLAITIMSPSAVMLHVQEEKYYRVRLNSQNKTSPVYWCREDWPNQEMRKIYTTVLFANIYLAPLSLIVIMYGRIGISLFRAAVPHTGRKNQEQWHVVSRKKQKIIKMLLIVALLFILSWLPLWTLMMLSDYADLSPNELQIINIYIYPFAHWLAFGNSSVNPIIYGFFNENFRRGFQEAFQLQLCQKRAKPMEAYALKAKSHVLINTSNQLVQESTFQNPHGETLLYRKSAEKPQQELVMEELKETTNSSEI
Method in brief: (§1)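 NIH3T3 cells transiently transfected for 16-20 h with receptor and β-galactosidase plasmids, then grown with compound for five days at 5% CO2. Functional response read as β-galactosidase activity with ONPG substrate, colorimetric absorbance at 420 nm.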

[1] = tested on: L5/L6 SNL-induced Tactile Allodynia; test: L5/L6 SNL-induced Tactile Allodynia; type: in vivo, rat; settings: for effect on L5/L6 SNL-induced tactile allodynia (paw withdrawal thresholds): various doses; for sensitivity to non-noxious mechanical stimulation in sham-operated rats: 10 mg/kg (1045, 2616), 30 mg/kg (dPQR)
Excerpt: This model of neuropathic pain was developed by Kim and Chung (Kim S H, Chung J M., “An experimental model for peripheral neuropathy produced by segmental spinal nerve ligation in the rat,” Pain, 1992 September; 50(3):355-63). This model requires the ligation of the L5 and L6 spinal nerves between the spinal cord and the entry point into the sciatic nerve. Seven to fourteen days following SNL surgery rats will be reassessed for their response thresholds to mechanical stimuli. For the assessment of paw withdrawal thresholds rats were allowed to acclimate within plexiglass enclosures for approximately 20 min. A series of calibrated von Frey filaments (1.56-15.0 g, logarithmically spaced) were applied to the plantar aspect of the injured hind paw until a response was elicited. Paw withdrawal thresholds to probing were determined according to a previously described method (Chaplan S R, Bach F W, Pogrel J W, Chung J M, Yaksh T L., “Quantitative assessment of tactile allodynia in the rat paw,” J Neurosci Methods, 1994 July;53(1):55-63). Paw withdrawal thresholds were determined to the nearest 0.1 g before surgery, then before and at multiple time points following compound administration. A significant reduction in the paw withdrawal threshold was interpreted as the presence of tactile allodynia.
In order to study the endogenous activity of the NPFF system following injury to peripheral nerves, the activity of a FF1 receptor antagonist, dPQR, was assessed in a model of neuropathic pain. In this model, the L5 and L6 spinal nerves between the spinal cord and the entry point into the sciatic nerve were ligated (Kim & Chung, 1992). Seven to fourteen days following SNL surgery rats were reassessed for their response thresholds to mechanical stimuli. For the assessment of paw withdrawal thresholds rats were allowed to acclimate within plexiglass enclosures for approximately 20 min. A series of calibrated von Frey filaments (1.56-15.0 g, logarithmically spaced) were applied to the plantar aspect of the injured hind paw until a response was elicited. Paw withdrawal thresholds to probing were determined according to a previously described method (Chaplan et al., 1994). Paw withdrawal thresholds were determined to the nearest 0.1 g before surgery, then before and at multiple time points following compound administration. A significant reduction in the paw withdrawal threshold was interpreted as the presence of tactile allodynia.
A model of neuropathic pain was created in rats by tight ligation of the L5 and L6 spinal nerves. […] Rats were then treated with various doses of Compound 1045 (1, 3 and 10 mg/kg, i.p.) and paw withdrawal thresholds were tested across a period of 2 hours.

NPFF1 = NPFF1 (Homo sapiens, UniProt Q9GZQ6); test: Receptor Selection and Amplification Technology (R-SAT) functional assay, NPFF1; type: cell-based; parameters: expressed in transfected cells; host or cells: NIH3T3; settings: for NPFF1 % Efficacy Mean: Hydrochloride
Sequence of NPFF1 (Q9GZQ6 whole entry, species assumed): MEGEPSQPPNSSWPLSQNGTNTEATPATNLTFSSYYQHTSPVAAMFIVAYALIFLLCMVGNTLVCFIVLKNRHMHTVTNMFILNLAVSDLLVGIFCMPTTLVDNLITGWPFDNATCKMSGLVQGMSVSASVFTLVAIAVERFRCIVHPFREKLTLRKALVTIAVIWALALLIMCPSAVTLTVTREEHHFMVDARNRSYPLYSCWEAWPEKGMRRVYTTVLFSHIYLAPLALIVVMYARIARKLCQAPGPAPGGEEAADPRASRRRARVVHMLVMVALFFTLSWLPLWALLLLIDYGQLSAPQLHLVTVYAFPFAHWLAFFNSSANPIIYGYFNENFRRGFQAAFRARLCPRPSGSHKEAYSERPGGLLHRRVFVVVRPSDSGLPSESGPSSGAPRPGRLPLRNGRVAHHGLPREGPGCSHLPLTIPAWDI
Method in brief: as §1

rats = test: Observed behaviors / side effects after systemic administration; type: in vivo, rat
Method: These behaviors typically precede “barrel-rolling” seizures.
These effects persisted between 15 and 20 minutes. These effects were not observed in rats that received doses less than 10 mg/kg.
These effects persisted between 15 and 20 minutes and were shown by both sham-operated and SNL rats. These effects were not observed in rats that received doses less than 10 mg/kg. [drawing 22]
However, these effects were more robust and of longer duration (60-90 min).
These effects persisted between 60 and 90 minutes and were shown by both sham-operated and SNL rats. These effects were not observed in rats that received doses less than 10 mg/kg. [drawing 23]
A model of neuropathic pain was created in rats by tight ligation of the L5 and L6 spinal nerves. […] Rats were then treated with various doses of dPQR (3, 10 and 30 mg/kg, i.p.) and paw withdrawal thresholds were tested across a period of 3 hours.
A model of neuropathic pain was created in rats by tight ligation of the L5 and L6 spinal nerves. […] Rats were then treated with various doses of Compound 3099 (1, 3 and 10 mg/kg, i.p.) and paw withdrawal thresholds were tested across a period of 3 hours.
In an attempt to increase the efficacy of Compound 3099 in the SNL model, we administered a dose of 30 mg/kg (i.p.) to SNL rats. […] Further, these behaviors were also transient, such that, by the end of the testing period these effects appeared to have resolved.

NPFF2b = target: T2, NPFF2b (Homo sapiens, UniProt Q9Y5X5); test: cAMP assay in transiently transfected HEK-T cells, NPFF2; type: cell-based; settings: for EC50: cAMP data, Table 2, HEK-T cells, read-out: NPFF2b pEC50 Mean (converted)
T2 construct: expressed in transfected cells; host or cells: HEK-T
T2 sequence (Q9Y5X5 103-522 limits assumed): as the sequence (Q9Y5X5 103-522) above
Method: An assay was established for measuring cAMP in transiently transfected cells that takes advantage of the fact that most cells that are transfected with one gene, can be simultaneously transfected with other genes. Thus, the NPFF1 and NPFF2 receptors were transfected along with a Gs-coupled receptor (EP2) at a ratio of 5:1.
This set up was routinely used for the transfection of HEK-T cells with NPFF1 and NPFF2 receptors. […] Cells were incubated for 15 minutes at 37° C. At the end of incubation, cells were lysed and the remainder of the assay performed as per DiscoveRx protocol.
Cells were incubated for another 15 minutes at 37° C. following which the cells were lysed and processed as per kit protocol.

[2] = NPFF2b pEC50 Mean, R-SAT data, Table 2, multiple entries = different batches
[3] = R-SAT data, Table 2, multiple entries = different batches
[4] = R-SAT data, Table 2, multiple entries = different batches, read-out: NPFF2b % Efficacy Mean
[5] = R-SAT data, Table 2, multiple entries = different batches, read-out: NPFF1 % Efficacy Mean
[6] = R-SAT, Table 1, Efficacy is relative to endogenous ligand, read-out: NPFF2 % Efficacy
[7] = R-SAT, Table 1, Efficacy is relative to endogenous ligand, read-out: NPFF1 % Efficacy

SMILES | EC50 (NPFF2; [2]) | NPFF2b % Efficacy Mean (NPFF2; [3]) | Emax (NPFF2; [4]) | effect on L5/L6 SNL-induced tactile allodynia (paw withdrawal thresholds) ([1]; SNL rats, i.p., Hydrochloride) | NPFF1 % Efficacy Mean (NPFF1; [3]) | Emax (NPFF1; [5]) | side effects at doses less than 10 mg/kg (rats; rat, in vivo) | side effects observed (rats; rat, in vivo, ip, 10 mg/kg) | EC50 (NPFF2b) | Emax (NPFF2; [6]) | Emax (NPFF1; [7]) | also measured
NC(N)=NN=Cc1ccc(-c2ccccc2C(F)(F)F)o1 (racemic) [Compound 2616, 1-[(5-(2-(Trifluoromethyl)phenyl)-furan-2-yl)-methyleneamino]guanidine Hydrochloride] | 100 nM | 80.4% and 72.9% | 63% | either demonstrate very little efficacy or potentiate tactile allodynia; also recorded: dose-related potentiation of tactile allodynia | 66.3% and 52.1% | 55% | not observed | demonstrated writhing behavior and appeared lethargic | 3160 nM | – | – | sensitivity to non-noxious mechanical stimulation in sham-operated rats ([1]; i.p., Hydrochloride): produced tactile allodynia in sham-operated rats; also recorded: significant reduction in the paw withdrawal thresholds of sham-operated rats; EC50 (NPFF1): 39.8 nM; EC50 (NPFF1; R-SAT data, Table 2, multiple entries = different batches, read-out: NPFF1 pEC50 Mean (converted)): 1260 nM and 316 nM; duration of side effects (rats; rat, in vivo, ip, 10 mg/kg): 60 to 90 min; Emax (NPFF2b; HEK-T cell, read-out: NPFF2b % Efficacy Mean): 114%
NC(N)=N/N=C/c1ccc(Cl)c(Cl)c1 [Compound 1045, 1-(3,4-Dichlorobenzylideneamino)guanidine Hydrochloride] | 794 nM and 501 nM | 55.2% | 63.8% | – | – | 6.3% | not observed | demonstrated writhing behavior and appeared lethargic | – | 64% | 17% | EC50 (NPFF2; NPFF2 pEC50, R-SAT, Table 1, NA = No activity detectable at the highest dose tested (20 μM)): 794 nM; efficacy against SNL-induced tactile allodynia at 30 mg/kg ([1]; SNL rats, 30 mg/kg): initially efficacious at the 30 min time-point; paw withdrawal thresholds by 60 min and until the end of the testing session ([1]; SNL rats, 30 mg/kg, suggests potentiation of tactile allodynia): significantly reduced the paw withdrawal thresholds to levels below those obtained in SNL vehicle-treated rats; maximum efficacy, reversal of tactile allodynia ([1]; SNL rats, i.p.): 37.9%; sensitivity to non-noxious mechanical stimulation in sham-operated rats ([1]; i.p.): did not significantly alter sensitivity to non-noxious mechanical stimulation; duration of side effects (rats; SNL rats, 30 mg/kg): 60 to 90 min; new side effects noted (rats; rat, in vivo, 30 mg/kg): ptosis, shuffling/stomping and biting of forlimbs and hindlimbs
Cl.N=C(N)N/N=C/c1ccc(Br)c(Br)c1 [Compound 3093, 1-(3,4-Dibromobenzylideneamino)guanidine Hydrochloride] | – | 89.9% | 85.3% | dose-dependently reverse tactile allodynia; also recorded: dose-related reversal of tactile allodynia | 11.7% | 10.2% | – | – | 6310 nM | 89% | 11% | EC50 (NPFF2; R-SAT data, Table 2, multiple entries = different batches, read-out: NPFF2b pEC50 Mean (converted)): 631 nM and 1260 nM; EC50 (NPFF2; R-SAT, Table 1, NA = No activity detectable at the highest dose tested (20 μM), read-out: NPFF2 pEC50 (converted)): 1580 nM; time of peak effect after administration ([1]; SNL rats, i.p.): 30 min; calculated A50, reversal of tactile allodynia ([1]; SNL rats, i.p., 95% CI): 6.2 mg; behaviors observed (typically precede barrel-rolling seizures) (rats; rat, in vivo, ip, 30 mg/kg): immobility and staring, ataxia, splayed hind limbs, body swaying, lying on one side with spastic limb abduction and body distortions
